These results are taken from US12391701B2, “Chromene-based compounds, methods and uses thereof” (University of Minho, priority 2019, dated 2025).

SMILES strings stand for the structures.

Data set [1] concerns Caenorhabditis elegans. Put plainly: C. elegans food clearance toxicity assay. Type of data set: in vivo. Particulars: several concentrations up to 150 μM (MC369 75 μM). On the procedure: In an embodiment, toxicity assessment of the compounds in vivo was performed using Caenorhabditis elegans (C. elegans) as a model. A food clearance-based assay was performed, in which the bacteria consumption over time is a proxy for worm development, health and fertility (FIG. 11). […] Worms were cultivated for 7 days in liquid media using heat-inactivated bacteria (E. coli OP50) as a food source and in the presence of several concentrations of compounds MC421, MC406, MC369 and MC408, MC409, MC407. The rate of food consumption between days 3-5 was used as an indication for worm development, health and also fertility, as after day 3 the worms' progeny will contribute to the faster decline in food abundance. An example is shown for hypothetical compound X. DMSO 1% and 5% are used as negative and positive controls for toxicity, respectively. For this experiment, the compounds were solubilized in DMSO 1% (vehicle). In an embodiment, Bristol strain N2 (provided by the CGC, funded by the NIH Office of Research Infrastructure Programs—P40 OD010440) was used to test each compound's toxicity based on a food clearance assay using C. elegans. The assay was performed on 96-well plates in liquid culture (Voisine et al. 2007; Teixeira-Castro et al. 2015). Each well, with a final volume of 60 μL, comprised the following: approximately 20 worms in egg stage, OP50 bacteria to a final OD of 0.6-0.8 (595 nm) and each compound at the appropriate concentration. The worms were grown with continuous shaking at 180 rpm/20° C. (Shel lab Si series incubator) for 7 days and the absorbance (OD595) was measured daily on a microplate reader (Tecan Infinite M200). The effect of the compounds on C. elegans physiology was monitored by the rate at which the E. coli food suspension was consumed (FIG. 14). Age-synchronized worm eggs were obtained by “egg prep” as follows: adult worms were treated with an alkaline hypochlorite solution (20% bleach, 25% 1M NaOH) for 6 minutes, thereafter centrifuged and washed in M9 buffer twice. The egg pellet was then re-suspended in S-medium to obtain the appropriate egg concentration before being transferred to 96-well plates. The OP50 bacteria was prepared by inactivating an overnight culture (37° C., 180 rpm, Luria Broth media) with 4 freeze-thaw cycles. Before use, the OP50 was re-suspended in supplemented S-medium (cholesterol, streptomycin, penicillin and nystatin). The compounds were prepared in 100% DMSO (Sigma) and diluted up to a test concentration of 1% DMSO to prevent solvent toxicity. For each compound, several concentrations (150-10 μM) were tested, with the exception of MC369 (75-10 μM) due to solubility issues. For each compound, several concentrations were used and the corresponding OD595 consumption rate (slope) for days 3-5 was calculated. The compounds were tested in worms grown in 96 well plates (PlateLayout.xls, Supporting Information), in two independent experiments. For the statistical analysis, the data from both experiments were pooled together and IBM SPSS was used to apply an ANOVA (Brown-Forsythe robust test of equality of means) followed by the Games-Howell post hoc test to compare the different concentrations used for each compound and 5% DMSO (wt/v) to the control (1% DMSO(wt/v)).

Data set [2] relates to glioma cell line U87. The experiment in a line: Cell viability MTS assay, U87. Particulars: Homo sapiens, 72 hours. Type of data set: cell-based. On the procedure: (§1) In an embodiment, the antiproliferative activity of compounds MC408, MC409, MC421 and MC406 was further determined against glioma cell lines (U87, GAMG and GL18) and acute leukemia cell lines (HL-60, KG-1 and Jurkat). This was done in order to evaluate if the compounds presented an equally interesting anticancer profile in other cancer cell models. Cell viability was determined using the MTS assay, after exposure of the cells to the respective compounds for 72 hours at appropriate concentration ranges to determine the respective IC50 values.
(§2) In an embodiment, three human breast cancer cell lines Hs578T, MDA-MB-468 and MCF-7, and a normal breast cell line MCF-10A, were obtained from ATCC (American Type Culture Collection). The cancer cell lines were cultured in Dulbecco's modified Eagle medium, 4.5 g/l glucose (DMEM, Gibco) supplemented with 10% heating inactivated Fetal Bovine Serum (FBS, Gibco) and 1% antibiotic solution (Penicillin-Streptomycin, Gibco). The normal cell line was cultured in Dulbecco's Modified Eagle Medium: Nutrient Mixture F-12 (DMEM/F12, Gibco) supplemented with 5% heating inactivated FBS (Gibco), 1% antibiotic solution (Penicillin-Streptomycin, Gibco), 1% steroid hormone (Hydrocortisone, Sigma-Aldrich), 0.1% peptide hormone (Insulin, Sigma-Aldrich) and 0.01% protein complex (Cholera Toxin, Gibco). Two distinct human acute myeloid leukemia (AML) cell lines, HL-60 (FAB M2) and KG-1 (erythroleukemia-FAB M6), and one human lymphoblastic leukemia (ALL) cell line, Jurkat (T cell type), were also used. These three cell lines were obtained from German Collection of Microorganisms and Cell cultures (DMSZ®, Deutsche Sammlung von Mikroorganismen and Zellkulturen in German). Cells were cultured in RPMI 1640 medium (Biochrom®-Merck Millipore) supplemented with 10% heating inactivated FBS (Biochrom®-Merck Millipore) and 1% antibiotic/antimitotic mixture (Invitrogen®). Three human glioblastoma (GBM) cell line models, two established and commercially available cell lines (U87MG and GAMG, kind gift from Rui M. Reis) and one primary GBM culture (GLIB) were also used. GBM cells were cultures in DMEM (Biochrom-Merck Millipore), all supplemented with 10% FBS. The Renal cell carcinoma cell lines A498, 786-O, Caki-2 and HK2 were obtained from ATCC. The cancer cell line A498 was cultured in MEM medium (Biochrom®-Merck Millipore), 786-O was cultured in RPMI 1640 medium (Biochrom®-Merck Millipore), Caki-2 was cultured in Mc Coys medium (Biochrom®-Merck Millipore) and HK2 was cultured in RPMI 1640 medium (Biochrom®-Merck Millipore). All the media were supplemented with 10% heat inactivated FBS (Biochrom®-Merck Millipore) and 1% antibiotic/antimitotic mixture (Invitrogen®). All cells were grown in a humidified incubator at 37° C. and 5% CO2. […]

Data set [3] has as its system glioma cell line GAMG. Put plainly: Cell viability MTS assay, GAMG. The settings on record: Homo sapiens, 72 hours. Type of data set: cell-based. How it is done: as §1
as §2, with “used.” for “used. GBM cells were cultures in DMEM (Biochrom-Merck Millipore), all supplemented with 10% FBS. The Renal cell carcinoma cell lines A498, 786-O, Caki-2 and HK2 were obtained from ATCC. The cancer cell line A498 was cultured in MEM medium (Biochrom®-Merck Millipore), 786-O was cultured in RPMI 1640 medium (Biochrom®-Merck Millipore), Caki-2 was cultured in Mc Coys medium (Biochrom®-Merck Millipore) and HK2 was cultured in RPMI 1640 medium (Biochrom®-Merck Millipore). All the media were supplemented with 10% heat inactivated FBS (Biochrom®-Merck Millipore) and 1% antibiotic/antimitotic mixture (Invitrogen®). All cells were grown in a humidified incubator at 37° C. and 5% CO2.”

`COc1cccc2c1Oc1nc(-c3ccccc3F)[nH]c1C2` [MC407, 2-(2-fluorophenyl)-5-methoxy-3,9-dihydrochromeno[2,3-d]imidazoles]: in data set [1], the “rate of food consumption between days 3-5 vs 1% DMSO” value (from here on “rate … vs 1% DMSO”) is “No statistical differences”.
Usually IC50 stands for the concentration that inhibits the measured activity by half. Lower therefore signals inhibition by little substance. Take `COc1cccc2c1Oc1nc(-c3ccc(F)cc3)[nH]c1C2C1c2cccc(OC)c2Oc2nc(-c3ccc(F)cc3)[nH]c21` (stereo not shown) [MC406, 2,2′-bis(4-fluorophenyl)-5,5′-dimethoxy-1,1,9,9′-tetrahydro-9,9′-bichromeno[2,3-]imidazoles]: the IC50 amounted to 0.17 µM in data set [2] and 0.22 µM in data set [3]. Also, the “rate … vs 1% DMSO” value in data set [1] is on record as “No statistical differences”.
Taken in the same sequence, the figures for `COc1cccc2c1Oc1nc(-c3ccc(F)cc3)[nH]c1C2` [MC409, 2-(4-fluorophenyl)-5-methoxy-3,9-dihydrochromeno[2,3-d]imidazoles] were 0.37 µM, 0.43 µM and “No statistical differences”.
As to `COc1cccc2c1Oc1nc(-c3ccccc3F)[nH]c1C2C1c2cccc(OC)c2Oc2nc(-c3ccccc3F)[nH]c21` (stereo not shown) [MC369, 2,2′-bis(2-fluorophenyl)-5,5′-dimethoxy-1,1,9,9′-tetrahydro-9,9′-bichromeno[2,3-]imidazoles], the “rate … vs 1% DMSO” value in data set [1] is “No statistical differences”.
Take `COc1cccc2c1Oc1nc(-c3ccc(Br)cc3)[nH]c1C2C1c2cccc(OC)c2Oc2nc(-c3ccc(Br)cc3)[nH]c21` (stereo not shown) [MC421, 2,2′-bis(4-bromophenyl)-5,5′-dimethoxy-1,1,9,9′-tetrahydro-9,9′-bichromeno[2,3-]imidazoles]: the concentration for half-maximal inhibition (IC50) came to 0.034 µM in data set [2] and 0.079 µM in data set [3]. The “rate … vs 1% DMSO” value in data set [1] was “No statistical differences”.
In data set [2], `COc1cccc2c1Oc1nc(-c3ccc(Br)cc3)[nH]c1C2` [MC408, 2-(4-bromophenyl)-5-methoxy-3,9-dihydrochromeno[2,3-d]imidazoles] showed a 50% inhibitory concentration (IC50) of 1.85 µM. Also, the “rate … vs 1% DMSO” value in data set [1] is “No statistical differences”.
